One block for each compound: values may come before it. Calls of active or inactive are those of the source. How the calls were made is not given here.
Assays:
[1] = molecular target: Endothelial PAS domain-containing protein 1 (Homo sapiens) (UniProt Q99814); test: HIF-2a and HIF-1a reporter inhibition panel, dose response, selectivity assay for HIF-2a inhibitor project, cell-based, luminescence (AID 651581)
[2] = molecular target: Hypoxia-inducible factor 1-alpha (Homo sapiens) (UniProt Q16665); test: as above; conditions: HIF-1a
Sequence of Hypoxia-inducible factor 1-alpha (Homo sapiens) (Q16665 whole entry, looked up): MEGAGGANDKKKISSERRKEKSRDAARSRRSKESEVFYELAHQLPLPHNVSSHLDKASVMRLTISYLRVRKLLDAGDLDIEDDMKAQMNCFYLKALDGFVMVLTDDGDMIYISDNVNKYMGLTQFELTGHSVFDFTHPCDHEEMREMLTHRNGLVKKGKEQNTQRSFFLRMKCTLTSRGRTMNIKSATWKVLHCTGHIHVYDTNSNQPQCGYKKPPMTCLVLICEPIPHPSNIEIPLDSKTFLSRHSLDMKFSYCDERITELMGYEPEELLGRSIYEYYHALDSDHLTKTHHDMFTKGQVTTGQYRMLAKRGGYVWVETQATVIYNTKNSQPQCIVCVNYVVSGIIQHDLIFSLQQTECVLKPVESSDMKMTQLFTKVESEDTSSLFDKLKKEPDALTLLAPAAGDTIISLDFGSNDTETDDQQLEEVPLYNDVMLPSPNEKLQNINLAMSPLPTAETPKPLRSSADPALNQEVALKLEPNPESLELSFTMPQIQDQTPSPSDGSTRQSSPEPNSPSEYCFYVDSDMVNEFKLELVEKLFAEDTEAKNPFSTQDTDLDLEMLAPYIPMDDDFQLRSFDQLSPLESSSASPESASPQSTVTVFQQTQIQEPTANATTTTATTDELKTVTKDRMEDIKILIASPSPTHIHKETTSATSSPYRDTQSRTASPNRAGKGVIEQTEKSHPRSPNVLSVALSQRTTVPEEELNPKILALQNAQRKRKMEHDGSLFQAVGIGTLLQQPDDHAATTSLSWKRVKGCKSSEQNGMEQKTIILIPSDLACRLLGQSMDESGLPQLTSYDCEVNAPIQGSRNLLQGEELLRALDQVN

SMILES: Nc1ccc2oc(-c3cc(Br)ccc3Cl)nc2c1
IC50 ([1]; HIF-2a PANC, mean of runs): 0.506 µM | IC50 ([1]; HIF-2a PANC, run 1): 0.52 µM | IC50 ([1]; HIF-2a PANC, run 2): 0.492 µM | IC50 ([1]; HIF-2a, mean of runs): 1.1 µM | IC50 ([1]; HIF-2a, run 1): 1.08 µM | IC50 ([1]; HIF-2a, run 2): 1.13 µM | IC50 ([2]; run 1): 69.1 µM | IC50 ([2]; run 2): > 99 µM

SMILES: O=C(Nc1ccc(N2CCOCC2)cc1)c1cnccn1
IC50 ([1]; HIF-2a PANC, mean of runs): inactive | IC50 ([1]; HIF-2a PANC, run 1): 31.5 µM | IC50 ([1]; HIF-2a PANC, run 2): 33.2 µM | IC50 ([1]; HIF-2a, mean of runs): 9.42 µM | IC50 ([1]; HIF-2a, run 1): 9.5 µM | IC50 ([1]; HIF-2a, run 2): 9.33 µM | IC50 ([2]; mean of runs): inactive | IC50 ([2]; run 1): 14.5 µM | IC50 ([2]; run 2): 21.4 µM

SMILES: O=C(Nc1ccc(Cl)cc1Cl)c1cccc(N2C(=O)C=CC2=O)c1
IC50 ([1]; HIF-2a PANC, run 1): > 99 µM | IC50 ([1]; HIF-2a PANC, run 2): 28.1 µM | IC50 ([1]; HIF-2a, mean of runs): 8.1 µM | IC50 ([1]; HIF-2a, run 1): 7.79 µM | IC50 ([1]; HIF-2a, run 2): 8.42 µM | IC50 ([2]; mean of runs): 41.1 µM | IC50 ([2]; run 1): 47.8 µM | IC50 ([2]; run 2): 34.5 µM

SMILES: Cc1nc(SCc2ccc(C(=O)O)cc2)nc2c1CCCC2
IC50 ([1]; HIF-2a PANC, mean of runs): inactive | IC50 ([1]; HIF-2a PANC, run 1): 20.8 µM | IC50 ([1]; HIF-2a PANC, run 2): 23.6 µM | IC50 ([1]; HIF-2a, mean of runs): 4.53 µM | IC50 ([1]; HIF-2a, run 1): 4.31 µM | IC50 ([1]; HIF-2a, run 2): 4.75 µM | IC50 ([2]; mean of runs): inactive | IC50 ([2]; run 1): 12.3 µM | IC50 ([2]; run 2): 7.67 µM

Further lines, results first:

IC50 ([1]; HIF-2a PANC, run 1): 53.4 µM | IC50 ([1]; HIF-2a PANC, run 2): > 99 µM | IC50 ([1]; HIF-2a, mean of runs): inactive | IC50 ([1]; HIF-2a, run 1): 10.6 µM | IC50 ([1]; HIF-2a, run 2): 9.59 µM | IC50 ([2]; run 1): 25.1 µM | IC50 ([2]; run 2): > 99 µM
SMILES: CCc1ccc(S(=O)(=O)ON2C(=O)c3ccccc3C2=O)cc1

IC50 ([1]; HIF-2a PANC, mean of runs): > 99 µM (inactive) | IC50 ([1]; HIF-2a PANC, run 1): > 99 µM | IC50 ([1]; HIF-2a PANC, run 2): > 99 µM | IC50 ([1]; HIF-2a, mean of runs): 3.76 µM | IC50 ([1]; HIF-2a, run 1): 3.87 µM | IC50 ([1]; HIF-2a, run 2): 3.66 µM | IC50 ([2]; run 1): > 99 µM | IC50 ([2]; run 2): > 99 µM
SMILES: Cc1ccc(S(=O)(=O)Nc2cccc3cccnc23)c([N+](=O)[O-])c1

IC50 ([1]; HIF-2a PANC, mean of runs): inactive | IC50 ([1]; HIF-2a PANC, run 1): 3.29 µM | IC50 ([1]; HIF-2a PANC, run 2): 6.42 µM | IC50 ([1]; HIF-2a, mean of runs): 0.864 µM | IC50 ([1]; HIF-2a, run 1): 0.858 µM | IC50 ([1]; HIF-2a, run 2): 0.87 µM | IC50 ([2]; mean of runs): 4.05 µM | IC50 ([2]; run 1): 5.07 µM | IC50 ([2]; run 2): 3.03 µM
SMILES: Cc1ccc(C(=O)c2cccc(N)c2)cc1C

IC50 ([1]; HIF-2a PANC, mean of runs): 3.65 µM | IC50 ([1]; HIF-2a PANC, run 1): 5.51 µM | IC50 ([1]; HIF-2a PANC, run 2): 1.79 µM | IC50 ([1]; HIF-2a, mean of runs): 1.88 µM | IC50 ([1]; HIF-2a, run 1): 2.55 µM | IC50 ([1]; HIF-2a, run 2): 1.22 µM | IC50 ([2]; mean of runs): 41.4 µM | IC50 ([2]; run 1): 38.6 µM | IC50 ([2]; run 2): 44.2 µM
SMILES: COc1ccc2nc(-c3ccc(N)cc3)[nH]c2c1

IC50 ([1]; HIF-2a PANC, mean of runs): > 99 µM (inactive) | IC50 ([1]; HIF-2a PANC, run 1): > 99 µM | IC50 ([1]; HIF-2a PANC, run 2): > 99 µM | IC50 ([1]; HIF-2a, mean of runs): 1.7 µM | IC50 ([1]; HIF-2a, run 1): 1.92 µM | IC50 ([1]; HIF-2a, run 2): 1.49 µM | IC50 ([2]; run 1): > 99 µM | IC50 ([2]; run 2): > 99 µM
SMILES: Cc1ccc(C(C)C)c(OCc2ccc(-c3nnco3)cc2)c1

— PubChem BioAssay AID651581 (Sanford-Burnham Center for Chemical Genomics, 2012)
